US6835735B2, “4-(phenylamino)-[1,4]dioxano[2,3-g]quinazoline derivatives and process for preparing the same” (Korea Institute of Science and Technology, priority 2001, dated 2004)
≈ marks a conversion by molar mass, not a printed value.

Columns and labels:
[1] = molecular target: T1, purified human EGFR kinase (Homo sapiens, UniProt P00533); experiment: Inhibition of EGFR tyrosine kinase (P32-ATP, biotin-conjugated substrate); assay type: biochemical; conditions: purified human EGFR kinase, 50 μM ATP, 30° C., 10 min
T1 construct: purchased Promega
Procedure: The test was accomplished in a 20 μl reaction volume using 0.1 unit per reaction of purified human EGFR kinase (Promega, U.S.A.) and 50 μM biotin-conjugated substrate for tyrosine kinase (Promega, U.S.A.) and, 50 μM P^32-γ-ATP (0.2 μCi) and 20 mM Tris-HCl (pH 7.5) were employed as an ATP and a reaction solution, respectively. The test was carried out at 30° C. for 10 min, and terminated by the addition of 10 μl of 30% phosphate solution. The half of the reaction product was spotted onto avidin-layered PVDF membrane, which was then washed with 20 mM Tris-HCl (pH 8.0) and 0.2N NaCl aqueous solution for more than 2 hours.

[2] = Measurement of the solubility of compounds in water (HPLC calibration curve); assay type: physicochemical; conditions: supersaturated in 1 ml of water, centrifuged, supernatant by HPLC; read-out: Solubility (mg/10 ml of water)
Procedure: That is, 1 mg of each of the above compounds was completely dissolved in 1 ml of DMSO, which was then subjected to HPLC employing C18 resin, and the peak area of chromatogram was calculated. And then, 1 mg of each of the same compound was dissolved in 10 ml of DMSO, which was then subjected to the same HPLC as the above to obtain a chromatogram, and the peak area was calculated therefrom. A solubility calibration curve was prepared by employing the above two data, and a linear function was deduced from that to complete a calibration curve (X axis: area, Y axis: logarithm value of concentration).
Each of the same compounds was supersaturated in 1 ml of water, which was then centrifuged at 14,000 rpm for 1 min. The precipitate was separated from the supernatant which was then subjected to the same HPLC as the above to obtain a chromatogram, and the peak area was calculated therefrom. The obtained value was substituted to the above calibration curve to measure the solubility by mg/10 ml of water (see: Table 1).

A431 cancer cell = experiment: Inhibition of cancer cell growth (sulforhodamine B); assay type: cell-based; conditions: Homo sapiens, A-431, 48 h, A431 cells, grown 2 days with compound, SRB staining
Procedure: A431 cancer cell was cultivated at 37° C. under an environment of 5% (v/v) CO2 employing RPMI 1640 medium containing 10% (v/v) fetal calf serum. […] The above cells was grown again for 2 days, and then, fixed with formalin solution (Sigma Chem. Co., U.S.A.) and washed with water. After that, the cells was dried in the atmosphere, stained with 0.1% (v/v) sulforhodamine B solution (Sigma Chem. Co., U.S.A.) for 30 min and wash with 1% (v/v) acetic acid aqueous solution. Then, dye attached to cells was extracted with 0.1M Tris-HCl (pH 8.0) and the absorbances of the remaining culture were measured at 520 nm by the aid of microplate reader. And then, the concentration of the compound by which cell growth is 50% inhibited was represented as GI50(s: Table 3).

T1 sequence (P00533 25-1210): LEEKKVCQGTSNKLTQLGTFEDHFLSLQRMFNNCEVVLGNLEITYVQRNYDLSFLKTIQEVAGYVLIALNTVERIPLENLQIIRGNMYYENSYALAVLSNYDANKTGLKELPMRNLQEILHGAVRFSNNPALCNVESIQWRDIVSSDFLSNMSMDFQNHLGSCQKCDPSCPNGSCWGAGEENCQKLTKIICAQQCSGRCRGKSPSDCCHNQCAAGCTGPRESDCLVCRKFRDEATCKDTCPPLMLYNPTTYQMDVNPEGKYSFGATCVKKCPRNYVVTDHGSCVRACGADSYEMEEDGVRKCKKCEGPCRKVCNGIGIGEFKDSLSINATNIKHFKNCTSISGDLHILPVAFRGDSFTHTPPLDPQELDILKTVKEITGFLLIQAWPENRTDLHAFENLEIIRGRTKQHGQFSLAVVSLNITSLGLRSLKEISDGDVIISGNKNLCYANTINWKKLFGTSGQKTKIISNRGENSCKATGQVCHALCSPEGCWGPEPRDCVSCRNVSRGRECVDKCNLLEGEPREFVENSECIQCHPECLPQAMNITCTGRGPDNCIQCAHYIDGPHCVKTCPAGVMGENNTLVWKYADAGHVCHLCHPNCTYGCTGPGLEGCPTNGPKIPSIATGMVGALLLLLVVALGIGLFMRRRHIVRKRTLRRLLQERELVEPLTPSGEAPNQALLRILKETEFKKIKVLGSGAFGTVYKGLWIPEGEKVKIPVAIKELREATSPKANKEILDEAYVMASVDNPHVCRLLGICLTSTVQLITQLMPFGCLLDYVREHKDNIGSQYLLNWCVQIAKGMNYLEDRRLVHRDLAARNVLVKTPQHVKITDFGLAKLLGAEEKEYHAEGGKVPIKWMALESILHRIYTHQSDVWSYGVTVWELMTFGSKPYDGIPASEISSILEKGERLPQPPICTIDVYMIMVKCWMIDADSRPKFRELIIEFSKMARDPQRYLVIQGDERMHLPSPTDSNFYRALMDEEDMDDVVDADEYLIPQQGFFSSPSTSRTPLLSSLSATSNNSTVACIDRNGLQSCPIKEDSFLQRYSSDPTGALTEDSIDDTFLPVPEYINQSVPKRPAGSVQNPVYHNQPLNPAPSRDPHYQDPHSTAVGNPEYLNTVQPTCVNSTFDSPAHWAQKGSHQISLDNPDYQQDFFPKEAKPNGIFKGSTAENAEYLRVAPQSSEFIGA

An IC50 [1] greater than 0.293 µM, a melting point of 257 to 260 °C and a solubility thermodynamic [2] of 1.04 mg/mL (≈ 3050 µM) were found for `COCC1COc2cc3ncnc(Nc4cccc(F)c4)c3cc2O1` (stereo not shown) [Example 8, (3-fluorophenyl)-(7-methoxymethyl-[1,4]-dioxano[2,3-g]quinazolin-4-yl)-amine] in this work. The GI50 (A431 cancer cell) was 1.16 mg/L (≈ 3.4 µM).
